The values below come from ChEMBL document CHEMBL6127070, “Design, synthesis, and molecular dynamic simulations of some novel benzo[d]thiazoles with anti-virulence activity against Pseudomonas aeruginosa” (Eur J Med Chem, 2024).

Assay [1] addresses T1, Transcriptional activator protein LasR (Pseudomonas aeruginosa (strain ATCC 15692 / PAO1 / 1C / PRS 101 / LMG12228), UniProt P25084).
T1 sequence (P25084 whole entry): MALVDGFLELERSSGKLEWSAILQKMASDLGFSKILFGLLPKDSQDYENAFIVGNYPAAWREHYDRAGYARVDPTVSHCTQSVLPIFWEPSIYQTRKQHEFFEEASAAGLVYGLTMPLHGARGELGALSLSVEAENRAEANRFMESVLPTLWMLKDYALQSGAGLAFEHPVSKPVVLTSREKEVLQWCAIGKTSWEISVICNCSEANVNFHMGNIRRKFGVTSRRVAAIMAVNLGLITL
The assay is described as follows: Inhibition of Pseudomonas aeruginosa LasR in Escherichia coli DH5 transfected with lacZ reporter and JN105 production plasmid incubated for 4 hrs by beta-galactosidase reporter based miller test.

Assay [2] relates to Pseudomonas aeruginosa. The assay is described as follows: Antivirulence activity in Pseudomonas aeruginosa assessed as inhibition of pyocyanin production by measuring OD at […] at sub-MIC by chloroform-HCl extraction method relative to control. It is filed as functional.
For assay [3], the system named is Klebsiella pneumoniae. The assay is described as follows: Antimicrobial activity against Klebsiella pneumoniae ATCC 700603 assessed as growth inhibition zone by agar diffusion method. It counts as functional.
Assay [4] relates to Pseudomonas aeruginosa. The assay is described as follows: Inhibition of biofilm formation in Pseudomonas aeruginosa assessed as absorbance by measuring OD at 570 nm at sub-MIC by crystal violet staining based analysis (reference value: 0.635 +/- 0.014). It counts as functional.
For assay [5], the system named is Staphylococcus aureus. Kind of assay: Antimicrobial activity against Staphylococcus aureus ATCC 43300 assessed as growth inhibition zone by agar diffusion method. It is filed as functional. (In general: Agar diffusion results depend on both activity and mobility in agar.)
Assay [6] deals with Pseudomonas aeruginosa. The assay is described as follows: Antibacterial activity against Pseudomonas aeruginosa assessed as effect on bacterial growth at 9.375 microg/ml incubated for 24 hrs by growth curve analysis. It is filed as functional, organism-based. The conditions noted are these: dose 9.375 µg/ml.
In assay [7] the test system is Pseudomonas aeruginosa. The assay is described as follows: Antivirulence activity in Pseudomonas aeruginosa assessed as inhibition of rhamnolipids production at sub-MIC by spectrophotometric method relative to control. It counts as functional.
Assay [8] deals with Escherichia coli. The assay is described as follows: Antimicrobial activity against Escherichia coli ATCC 25922 assessed as growth inhibition zone by agar diffusion method. It is filed as functional.
Assay [9] relates to Pseudomonas aeruginosa. Kind of assay: Antimicrobial activity against Pseudomonas aeruginosa ATCC 27853 assessed as growth inhibition zone by agar diffusion method. It is filed as functional.
In assay [10] the test system is Pseudomonas aeruginosa. The assay is described as follows: Antibacterial activity against Pseudomonas aeruginosa by CLSI protocol based broth microdilution method. It is filed as functional. The conditions noted are these: for MIC: Pseudomonas aeruginosa.
Assay [11] relates to Pseudomonas aeruginosa. The assay is described as follows: Inhibition of biofilm formation in Pseudomonas aeruginosa at sub-MIC by crystal violet staining based analysis relative to control. It is filed as functional.
Assay [12] has as its system Pseudomonas aeruginosa. The assay is described as follows: Antivirulence activity in Pseudomonas aeruginosa assessed as inhibition of pyocyanin production at sub-MIC by chloroform-HCl extraction method relative to control. It counts as functional.
Assay [13] concerns Candida albicans. The assay is described as follows: Antimicrobial activity against Candida albicans ATCC 60193 assessed as growth inhibition zone by agar diffusion method. It counts as functional.
In assay [14] the test system is Bacillus subtilis. Kind of assay: Antimicrobial activity against Bacillus subtilis ATCC 6633 assessed as growth inhibition zone by agar diffusion method. It is filed as functional.
The nature of assay [15]: Inhibition of quorum sensing system in Pseudomonas aeruginosa MH602 transfected with lasB promoter expressing gfp-ASV at 250 uM incubated for 20 hrs by microplate reader analysis relative to control.
A short description of assay [16]: Inhibition of quorum sensing system in Pseudomonas aeruginosa MH602 transfected with lasB promoter expressing gfp-ASV at 62.5 uM incubated for 20 hrs by microplate reader analysis relative to control.
Assay [17] can be described thus: Inhibition of quorum sensing system in Pseudomonas aeruginosa MH602 transfected with lasB promoter expressing gfp-ASV at 125 uM incubated for 20 hrs by microplate reader analysis relative to control.
Assay [18] has as its system Pseudomonas aeruginosa. Kind of assay: Antibacterial activity against Pseudomonas aeruginosa assessed as bacterial mortality relative to control. It counts as functional.
Assay [19] deals with Pseudomonas aeruginosa. The assay is described as follows: Antibacterial activity against Pseudomonas aeruginosa assessed as 1/4 MIC by CLSI protocol based broth microdilution method. It counts as functional. On the technique in general: In broth dilution the organism is exposed to a series of concentrations in liquid medium.
Assay [20] deals with Pseudomonas aeruginosa. Kind of assay: Antibacterial activity against Pseudomonas aeruginosa assessed as effect on bacterial growth at 16 microg/ml incubated for 24 hrs by growth curve analysis. It is filed as functional, organism-based. The conditions noted are these: dose 16.0 µg/ml.
For assay [21], the system named is Pseudomonas aeruginosa. Kind of assay: Antibacterial activity against Pseudomonas aeruginosa assessed as effect on bacterial growth at 37.5 microg/ml incubated for 24 hrs by growth curve analysis. It is filed as functional, organism-based. The conditions noted are these: dose 37.5 µg/ml.
Assay [22] in a line: Inhibition of quorum sensing system in Pseudomonas aeruginosa PAO1 transfected with lasB-gfp reporter gene incubated for >=12 hrs by fluorescence based microplate reader analysis. In general terms: In a reporter assay the amount or activity of a reporter protein is the signal.
For assay [23], the system named is Pseudomonas aeruginosa. The assay is described as follows: Inhibition of biofilm formation in Pseudomonas aeruginosa PAO1 at 50 uM incubated for 24 hrs by crystal violet staining based analysis relative to control. It is filed as functional.
The test system of assay [24] is Pseudomonas aeruginosa. Kind of assay: Inhibition of biofilm formation in Pseudomonas aeruginosa at MIC incubated for 48 hrs by crystal violet staining based analysis relative to control. It is filed as functional.
The subject of assay [25] is Pseudomonas aeruginosa. Kind of assay: Antibacterial activity against Pseudomonas aeruginosa assessed as bacterial mortality in presence of ciprofloxacin relative to control. It is filed as functional.
Assay [26] concerns Pseudomonas aeruginosa. The assay is described as follows: Antibacterial activity against Pseudomonas aeruginosa assessed as bacterial mortality in presence of clarithromycin relative to control. It counts as functional.
Assay [27] relates to Pseudomonas aeruginosa. The assay is described as follows: Inhibition of biofilm formation in Pseudomonas aeruginosa PAO1 at 64 microg/ml relative to control. It counts as functional.
Assay [28] is described as follows: Inhibition of quorum sensing system in Pseudomonas aeruginosa PAO1 assessed as reduction in pyocyanin production at 256 microg/ml relative to control. The conditions noted are these: dose 256.0 µg/ml.
The nature of assay [29]: Inhibition of quorum sensing system in Pseudomonas aeruginosa transfected with lasB-gfp reporter gene incubated for 20 hrs by fluorescence based multilabel plate reader analysis.
Assay [30] concerns Pseudomonas aeruginosa. Kind of assay: Antibiofilm activity against Pseudomonas aeruginosa assessed as inhibition of biofilm biomass at 300 microg/ml measured after 48 hrs relative to control. It counts as functional.

Values after ≈ are worked out from the molar mass of the structure shown. Active and inactive are the calls of the source. The rule behind the calls is not given here.

With `N#C/C(=C\c1ccc(N2CCCC2)cc1)c1nc2ccccc2s1`, half-maximal inhibition in [1] (IC50) was put at 1550 nM. Besides, the OD in assay [2] worked out at 0.156; in assay [4], 0.229. Moreover, the “inhibition zone (IZ)” value stood at 26 mm in assay [3]; 27 mm in assay [5]; 24 mm in assay [8]; 25 mm in assay [9]; 28 mm in [13]; 22 mm in assay [14]. Besides, the outcome in [6] was inactive. The “inhibition (INH)” value in [7] is recorded as 51%; in [11], 63.9%; in assay [12], 64.9%. Further, the SubMIC in assay [10] was determined as 9.375 µg/mL. Besides, the minimum inhibitory concentration (MIC) (usually the lowest concentration that inhibits growth of the organism) in assay [10] was 18.8 µg/mL.
Turning to `O=C(Cn1cc(-c2ccc([N+](=O)[O-])cc2)nn1)Nc1nc2ccccc2[nH]1`, the results for the inhibition in assay [15], in [16] and in [17] were 68.2%, 63.7% and 67.1%, respectively.
With `CC[C@H]1OC(=O)[C@H](C)[C@@H](O[C@H]2C[C@@](C)(OC)[C@@H](O)[C@H](C)O2)[C@H](C)[C@@H](O[C@@H]2O[C@H](C)C[C@H](N(C)C)[C@H]2O)[C@](C)(OC)C[C@@H](C)C(=O)[C@H](C)[C@@H](O)[C@]1(C)O` [CLARITHROMYCIN], the mortality (in general, the share of the test organisms that died) in [18] is listed as 29.11%.
For the compound `CC[C@H]1OC(=O)[C@H](C)[C@@H](O[C@H]2C[C@@](C)(OC)[C@@H](O)[C@H](C)O2)[C@H](C)[C@@H](O[C@@H]2O[C@H](C)C[C@H](N(C)C)[C@H]2O)[C@](C)(O)C[C@@H](C)CN(C)[C@H](C)[C@@H](O)[C@]1(C)O` [AZITHROMYCIN], the results for the MIC in [19] and in [10] were 20.1 µM (≈ 15.1 µg/mL) and 85.4 µM, respectively. Also, the OD in assay [2] is 0.216; in assay [4], 0.307. Further, the “inhibition (INH)” value in assay [7] worked out at 47.4%; in assay [11], 21.7%; in assay [12], 51.5%. This compound also showed a SubMIC in assay [10] of 16 µg/mL. The result in assay [20] was inactive.
Take `Cc1cc(C)n2ncc(-c3nc4ccccc4s3)c2n1`: the OD in assay [2] was determined as 0.407; in assay [4], 0.631. For the same compound, the “inhibition zone (IZ)” value came out at 19 mm in assay [3]; 18 mm in assay [5]; 17 mm in [8]; 17 mm in [9]; 20 mm in [13]; 15 mm in [14]. Moreover, the inhibition result in assay [7] and in assay [11] was “inactive” in each case. Also, the SubMIC in assay [10] turned out to be 37.5 µg/mL. The compound further displayed an MIC in assay [10] of 75 µg/mL. Also, the result in assay [21] was inactive. Besides, in assay [12], the “inhibition (INH)” value came to 8.5%.
Take `O=C(O)c1cn(C2CC2)c2cc(N3CCNCC3)c(F)cc2c1=O` [CIPROFLOXACIN]: the mortality in assay [18] is recorded as 16.99%.
Take `[O-][S+](Cc1ccc(Cl)cc1)c1nc2cc(Cl)ccc2o1` (stereo unspecified): the midpoint of inhibition in assay [22], the IC50, lay at 2080 nM. The inhibition (as a rule, the change of the read-out against control, counted positive when it falls) at 50 µM in [23] is 46.1%.
Consider `COC(=O)c1ccc(/N=N/c2c(N)nn3c(N)c(C#N)c(-c4ccc(N(C)C)cc4)nc23)cc1`, for which the “inhibition (INH)” value in assay [24] is 69%.
As for `Nc1[nH]ncc1-c1nc2ccccc2s1`, the results for the OD in [2] and in assay [4] were 0.425 and 0.612, respectively. In addition, the “inhibition zone (IZ)” value in assay [3] is reported as 18 mm; in [5], 15 mm; in assay [8], 16 mm; in assay [9] it was 16 mm; in assay [13], 17 mm; in assay [14], 15 mm. For the same compound, the inhibition entry in assay [7] and in [11] was “inactive” each time. In assay [10], this compound registered a SubMIC of 37.5 µg/mL. In assay [10], this compound had an MIC of 75 µg/mL. Also, the result in assay [21] was inactive. In addition, the “inhibition (INH)” value in [12] is 4.5%.
For the compound `Fc1ccc(-c2ccnc3c(-c4nc5ccccc5s4)cnn23)cc1`, the IC50 (as a rule, the concentration at which inhibition is half-maximal) in [1] stood at 1100 nM. In addition, the OD in assay [2] was 0.136; in assay [4], 0.194. The “inhibition zone (IZ)” value in [3] came to 26 mm; in assay [5], 24 mm; in assay [8] it was 21 mm; in assay [9] it was 25 mm; in assay [13], 30 mm; in assay [14], 25 mm. Moreover, in [6], the result was inactive. Further, the “inhibition (INH)” value in [7] is given as 54.3%; in [11] it was 69.4%; in assay [12], 69.4%. In assay [10], this compound displayed a SubMIC of 9.375 µg/mL. In assay [10], this compound came in with an MIC of 18.8 µg/mL.
On to `COc1ccc(OCCCCCCCC(=O)NNC(=O)Cn2c(=O)oc3ncccc32)cc1`, for which the mortality in [25] was 48.27%; in [26], 49.79%. In [27], 64 µg/mL produced 40% inhibition. Also, in [28], the inhibition worked out at 46.9%.
Regarding `COc1ccc(C(=O)CSc2nc3ccccc3s2)c(OC)c1`, the half-inhibitory concentration (IC50) in [29] amounted to 45.5 µg/mL (≈ 132 µM). The inhibition at 300 µg/mL in [30] is 70%.
In turn, `CN1CCN(c2ccc(/C=C(\C#N)c3nc4ccccc4s3)cc2)CC1` displayed an IC50 in [1] of 1370 nM. Further, the OD in assay [2] amounted to 0.113; in assay [4], 0.146. Further, the “inhibition zone (IZ)” value in assay [3] worked out at 27 mm; in assay [5], 28 mm; in assay [8] it was 26 mm; in assay [9], 26 mm; in assay [13], 30 mm; in assay [14], 25 mm. The result in assay [6] was inactive. The “inhibition (INH)” value amounted to 58.5% in assay [7], 77% in assay [11] and 74.6% in assay [12]. Further, the SubMIC in [10] is 9.375 µg/mL. Moreover, in assay [10], inhibition of growth (MIC) required 18.8 µg/mL.
